Test results: patent publication US20220348592A1, “FUSED HETEROCYCLIC DERIVATIVES” (Janssen Sciences Ireland Unlimited Company, priority 2019, published 2022)

How the values were obtained:
HBV = test: Anti-HBV activity: intracellular HBV DNA by real-time PCR in HepG2.117 cell line; format: cell-based, Hepatitis B virus; conditions: Hepatitis B virus, 72 h; HepG2.117 cells, 3 days of treatment, intracellular HBV DNA by real-time PCR, mean value; read-out: HBV-AVE-HepG2.117 EC50 (μM, mean value)
Method in brief: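 HepG2.117 cells, a Tet-off inducible HBV-producing line, induced to replicate HBV and then treated with serially diluted compound. After 3 days, intracellular HBV DNA quantified by real-time PCR with HBV-specific primers and probe.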

[1] = Cytotoxicity in HepG2.117 cells, ATPlite Luminescence Assay; format: cell-based, human; conditions: human, incubated for 3 days, mean value, read-out: TOX-HepG2.117 CC50 (μM, mean value)
Description: Cytotoxicity of the compounds was tested using HepG2 or HepG2.117 cells, incubated for 3 days in the presence of compounds. The viability of the cells was assessed using the PERKIN ELMER ATPlite Luminescence Assay System.”

Structure (SMILES)	EC50 (HBV) [µM]	CC50 at 3 days [1] [µM]
C[C@@H]1Cc2nn3c(c2CN1C(=O)c1ccc(Cl)c(Cl)c1)C(=O)N(Cc1cn2ccc(C(F)(F)F)cc2n1)CC3 [Example C176]	0.274	15
Cc1cc(F)ncc1CN1CCn2nc3c(c2C1=O)CN(C(=O)c1ccc(Cl)c(Cl)c1)[C@H](C)C3 [Example C177]	0.136	> 50
C[C@@H]1Cc2nn3c(c2CN1C(=O)c1ccc(Cl)c(Cl)c1)C(=O)N(Cc1cc(C#N)c(F)cc1F)CC3 [Example C178]	0.207	> 50
CC(C)c1nnc(CN2CCn3nc4c(c3C2=O)CN(C(=O)c2ccc(Cl)c(Cl)c2)[C@H](C)C4)o1 [Example C179]	0.219	> 50
C[C@@H]1Cc2nn3c(c2CN1C(=O)c1ccc(Cl)c(Cl)c1)C(=O)N(Cc1cc(C#N)ccc1F)CC3 [Example C180]	0.123	> 50
C[C@@H]1Cc2nn3c(c2CN1C(=O)c1ccc(Cl)c(Cl)c1)C(=O)N(Cc1cc(F)ccc1C(F)(F)F)CC3 [Example C181]	0.152	> 50
C[C@@H]1Cc2nn3c(c2CN1C(=O)c1ccc(Cl)c(Cl)c1)C(=O)N(Cc1cc(C(F)F)on1)CC3 [Example C182]	0.075	> 50
CC(C)c1noc(C(C)N2CCn3nc4c(c3C2=O)CN(C(=O)c2ccc(Cl)c(Cl)c2)[C@H](C)C4)n1 (stereo partly shown) [Example C183]	0.108	> 50
CC(c1nnnn1C1CC1)N1CCn2nc3c(c2C1=O)CN(C(=O)c1ccc(Cl)c(Cl)c1)[C@H](C)C3 (stereo partly shown) [Example C184]	> 2.5	> 50
CC(c1cccnc1)N1CCn2nc3c(c2C1=O)CN(C(=O)c1ccc(Cl)c(Cl)c1)[C@H](C)C3 (stereo partly shown) [Example C185]	0.114	> 50
CC(c1ccc(F)c(F)c1)N1CCn2nc3c(c2C1=O)CN(C(=O)c1ccc(Cl)c(Cl)c1)[C@H](C)C3 (stereo partly shown) [Example C186]	0.049	21.6
CC(C)Cc1nnc(C(C)N2CCn3nc4c(c3C2=O)CN(C(=O)c2ccc(Cl)c(Cl)c2)[C@H](C)C4)o1 (stereo partly shown) [Example C187]	0.155	> 50
CC(c1cccc(F)c1)N1CCn2nc3c(c2C1=O)CN(C(=O)c1ccc(Cl)c(Cl)c1)[C@H](C)C3 (stereo partly shown) [Example C188]	0.04	49.6
CC(c1cc(F)ccc1F)N1CCn2nc3c(c2C1=O)CN(C(=O)c1ccc(Cl)c(Cl)c1)[C@H](C)C3 (stereo partly shown) [Example C189]	0.043	41.8
CC(c1nc(C2CC2)no1)N1CCn2nc3c(c2C1=O)CN(C(=O)c1ccc(Cl)c(Cl)c1)[C@H](C)C3 (stereo partly shown) [Example C190]	0.115	33.1
CC(c1cccc2cccnc12)N1CCn2nc3c(c2C1=O)CN(C(=O)c1ccc(Cl)c(Cl)c1)[C@H](C)C3 (stereo partly shown) [Example C191]	0.097	33
CC(c1ccc(F)cc1F)N1CCn2nc3c(c2C1=O)CN(C(=O)c1ccc(Cl)c(Cl)c1)[C@H](C)C3 (stereo partly shown) [Example C192]	0.076	39.7
Cc1nccnc1C(C)N1CCn2nc3c(c2C1=O)CN(C(=O)c1ccc(Cl)c(Cl)c1)[C@H](C)C3 (stereo partly shown) [Example C193]	0.197	> 50
CC(c1cccc(OC(F)(F)F)c1)N1CCn2nc3c(c2C1=O)CN(C(=O)c1ccc(Cl)c(Cl)c1)[C@H](C)C3 (stereo partly shown) [Example C194]	0.075	26.4
C[C@@H]1Cc2nn3c(c2CN1C(=O)c1ccc(Cl)c(Cl)c1)C(=O)N(Cc1ccc(C#N)cn1)CC3 [Example C195]	0.566	> 50
C[C@@H]1Cc2nn3c(c2CN1C(=O)c1ccc(Cl)c(Cl)c1)C(=O)N(Cc1cc(F)cc(F)c1)CC3 [Example C196]	0.048	38
C[C@@H]1Cc2nn3c(c2CN1C(=O)c1ccc(Cl)c(Cl)c1)C(=O)N(Cc1c(F)cncc1F)CC3 [Example C197]	0.24	> 50
COc1ncc(CN2CCn3nc4c(c3C2=O)CN(C(=O)c2ccc(Cl)c(Cl)c2)[C@H](C)C4)cn1 [Example C198]	0.053	> 50
C[C@@H]1Cc2nn3c(c2CN1C(=O)c1ccc(Cl)c(Cl)c1)C(=O)N(Cc1nc(Cl)ccc1F)CC3 [Example C199]	0.33	> 50

Structure (SMILES)	EC50 (HBV) [µM]	CC50 at 3 days [1] [µM]
C[C@@H]1Cc2nn3c(c2CN1C(=O)c1ccc(Cl)c(Cl)c1)C(=O)N(Cc1nnn(C)n1)CC3 [Example C200]	0.25	> 50
C[C@@H]1Cc2nn3c(c2CN1C(=O)c1ccc(Cl)c(Cl)c1)C(=O)N(Cc1nnc(C2CC2)o1)CC3 [Example C201]	0.229	> 50
C[C@@H]1Cc2nn3c(c2CN1C(=O)c1ccc(Cl)c(Cl)c1)C(=O)N(Cc1cn(C)cn1)CC3 [Example C202]	0.071	> 50
C[C@@H]1Cc2nn3c(c2CN1C(=O)c1ccc(Cl)c(Cl)c1)C(=O)N(Cc1ccc(C#N)cc1OC(F)F)CC3 [Example C203]	0.09	> 50
Cc1cc(CN2CCn3nc4c(c3C2=O)CN(C(=O)c2ccc(Cl)c(Cl)c2)[C@H](C)C4)ccc1C#N [Example C204]	0.028	19.2
Cc1cc(C#N)ccc1CN1CCn2nc3c(c2C1=O)CN(C(=O)c1ccc(Cl)c(Cl)c1)[C@H](C)C3 [Example C207]	0.053	25.6
C[C@@H]1Cc2nn3c(c2CN1C(=O)c1ccc(Cl)c(Cl)c1)C(=O)N(Cc1ccc(F)cn1)CC3 [Example C208]	0.13	> 50
Cc1ncc(CN2CCn3nc4c(c3C2=O)CN(C(=O)c2ccc(Cl)c(Cl)c2)[C@H](C)C4)o1 [Example C209]	> 2.5	> 50
C[C@@H]1Cc2nn3c(c2CN1C(=O)c1ccc(Cl)c(Cl)c1)C(=O)N(Cc1ccnc(F)c1)CC3 [Example C210]	0.062	> 50
C[C@@H]1Cc2nn3c(c2CN1C(=O)c1ccc(Cl)c(Cl)c1)C(=O)N(Cc1ccnc(C#N)c1)CC3 [Example C211]	0.285	> 50
C[C@@H]1Cc2nn3c(c2CN1C(=O)c1ccc(Cl)c(Cl)c1)C(=O)N(Cc1cc(F)ccc1OC(F)F)CC3 [Example C212]	0.05	> 50
C[C@@H]1Cc2nn3c(c2CN1C(=O)c1ccc(Cl)c(Cl)c1)C(=O)N(Cc1cccc(C(F)(F)F)n1)CC3 [Example C213]	0.382	37.5
Cc1ncoc1CN1CCn2nc3c(c2C1=O)CN(C(=O)c1ccc(Cl)c(Cl)c1)[C@H](C)C3 [Example C214]	0.074	> 50
COc1ccc(C#N)cc1CN1CCn2nc3c(c2C1=O)CN(C(=O)c1ccc(Cl)c(Cl)c1)[C@H](C)C3 [Example C215]	0.106	> 50
C[C@@H]1Cc2nn3c(c2CN1C(=O)c1ccc(Cl)c(Cl)c1)C(=O)N(Cc1ccc(F)c(C#N)c1)CC3 [Example C216]	0.09	> 50
CC(c1nc(C(C)(C)C)no1)N1CCn2nc3c(c2C1=O)CN(C(=O)c1ccc(Cl)c(Cl)c1)[C@H](C)C3 (stereo partly shown) [Example C217]	0.183	39.5
CC(c1nccs1)N1CCn2nc3c(c2C1=O)CN(C(=O)c1ccc(Cl)c(Cl)c1)[C@H](C)C3 (stereo partly shown) [Example C218]	0.039	> 50
Cc1cnc(C(C)N2CCn3nc4c(c3C2=O)CN(C(=O)c2ccc(Cl)c(Cl)c2)[C@H](C)C4)cn1 (stereo partly shown) [Example C219]	0.068	> 50
CCc1nnc(C(C)N2CCn3nc4c(c3C2=O)CN(C(=O)c2ccc(Cl)c(Cl)c2)[C@H](C)C4)o1 (stereo partly shown) [Example C220]	0.077	> 50
Cc1cnc(C(C)N2CCn3nc4c(c3C2=O)CN(C(=O)c2ccc(Cl)c(Cl)c2)[C@H](C)C4)o1 (stereo partly shown) [Example C221]	0.022	> 50
CCc1noc(C(C)N2CCn3nc4c(c3C2=O)CN(C(=O)c2ccc(Cl)c(Cl)c2)[C@H](C)C4)n1 (stereo partly shown) [Example C222]	0.124	> 50
Cc1noc(C(C)N2CCn3nc4c(c3C2=O)CN(C(=O)c2ccc(Cl)c(Cl)c2)[C@H](C)C4)n1 (stereo partly shown) [Example C223]	0.219	> 50
Cc1nnc(C(C)N2CCn3nc4c(c3C2=O)CN(C(=O)c2ccc(Cl)c(Cl)c2)[C@H](C)C4)o1 (stereo partly shown) [Example C224]	0.326	> 50
